Experiments:
Type in all cases: physicochemical
[1] = Effect of MgCl2 on hydrolysis of MBC-11 in solution (formation of Ara-CMP at 25° C.); details: for Content of Ara-CMP (%): 25° C.
Protocol: Studies were performed, where magnesium chloride was investigated as a stabilizer against hydrolytic decomposition. MgCl2 was added to solutions of MBC-11 conjugate in water, tartrate buffer (50 mmol/L, pH 5) and succinate buffer (50 mmol/L, pH 5). The following molar ratios of MgCl2 to MBC-11 were used: (1:2), (1:1), (2:1) and higher (˜12:1). […]

[2] = Hydrolysis rate constant with MgCl2 or CaCl2 as stabilizer; details: for hydrolysis rate constant (K): in water
Source text: The use of calcium chloride as a stabilizer against hydrolytic decomposition in both buffer solutions and water was also investigated; the hydrolysis rate constant was compared with the constant for MgCl2. […] If molar ratios were less than 2:1, the hydrolysis rate was lower for solutions containing MgCl2.

[3] = Compatibility with media for intravenous administration (Ara-CMP increase); details: 25 mg/mL MBC-11, MgCl2:MBC-11 2:1, dextran 5%, diluted to 1 mg/mL in D5W; within one day
[4] = Physical and hydrolytic stability of reconstituted lyophilizates in intravenous media; details: reconstituted lyophilizate, low dose in D5W, 25° C., 6 hours
Protocol: The lyophilized dosage form was evaluated for compatibility with three different media for intravenous administration within 24 hours: sterile water for injection (SWFI), D5W and 0.9% sodium chloride solution. […] The lyophilized dosage form was first dissolved in 5 mL SWFI to the MBC-11 trisodium salt concentration of 20 mg/mL, and then it was placed in glass vials and diluted with each medium for intravenous administration until the infusion doses under study were obtained. The solutions thus obtained were kept at 2-8° C. and 25° C. for 24 hours, and the evaluation of the samples in appearance, content and purity at the points t=0, 2, 4, 6 and 24 hours was performed.
At each control point, solutions for intravenous administration with a high dosage were evaluated in appearance, after which they were diluted to a nominal analytical concentration of 1 mg/mL with a solvent used in the analytical method for evaluating the substance purity. The samples thus obtained were used to determine the purity and content of the active pharmaceutical ingredient.

Q: With `CC(O)(P(=O)(O)O)P(=O)(O)OP(=O)(O)OC[C@H]1O[C@@H](n2ccc(N)nc2=O)[C@@H](O)[C@@H]1O` (some centres unmarked) [MBC-11] as the compound, how does the “Content of Ara-CMP (%)” value ([1]; Succinate buffer, MgCl2 0.87 mmol/L, MgCl2:MBC-11 1:2, t = 0 h) read?
A: 2.6%

Q: And the “Content of Ara-CMP (%)” value ([1]; Succinate buffer, MgCl2 0.87 mmol/L, MgCl2:MBC-11 1:2, t = 4 h)?
A: 3.5%

Q: And the “Content of Ara-CMP (%)” value ([1]; Succinate buffer, MgCl2 0.87 mmol/L, MgCl2:MBC-11 1:2, t = 8 h)?
A: 4.4%

Q: And the “Content of Ara-CMP (%)” value ([1]; Succinate buffer, MgCl2 0.87 mmol/L, MgCl2:MBC-11 1:2, t = 24 h)?
A: 7.9%

Q: And the “Content of Ara-CMP (%)” value ([1]; Succinate buffer, MgCl2 1.73 mmol/L, MgCl2:MBC-11 1:1, t = 0 h)?
A: 2.5%

Q: And the “Content of Ara-CMP (%)” value ([1]; Succinate buffer, MgCl2 1.73 mmol/L, MgCl2:MBC-11 1:1, t = 4 h)?
A: 3.1%

Q: And the “Content of Ara-CMP (%)” value ([1]; Succinate buffer, MgCl2 1.73 mmol/L, MgCl2:MBC-11 1:1, t = 8 h)?
A: 3.7%

Q: And the “Content of Ara-CMP (%)” value ([1]; Succinate buffer, MgCl2 1.73 mmol/L, MgCl2:MBC-11 1:1, t = 24 h)?
A: 5.6%

Q: And the “Content of Ara-CMP (%)” value ([1]; Succinate buffer, MgCl2 3.5 mmol/L, MgCl2:MBC-11 2:1, t = 0 h)?
A: 2.6%

Q: What about the “Content of Ara-CMP (%)” value ([1]; Succinate buffer, MgCl2 3.5 mmol/L, MgCl2:MBC-11 2:1, t = 4 h) of the same compound?
A: 3.1%

Q: What about the “Content of Ara-CMP (%)” value ([1]; Succinate buffer, MgCl2 3.5 mmol/L, MgCl2:MBC-11 2:1, t = 8 h) of the same compound?
A: 3.7%

Q: What about the “Content of Ara-CMP (%)” value ([1]; Succinate buffer, MgCl2 3.5 mmol/L, MgCl2:MBC-11 2:1, t = 24 h) of the same compound?
A: 5.8%

Q: What about the “Content of Ara-CMP (%)” value ([1]; Succinate buffer, MgCl2 20 mmol/L, MgCl2:MBC-11 ~12:1, t = 0 h) of the same compound?
A: 2.5%

Q: And the “Content of Ara-CMP (%)” value ([1]; Succinate buffer, MgCl2 20 mmol/L, MgCl2:MBC-11 ~12:1, t = 4 h)?
A: 2.7%

Q: And the “Content of Ara-CMP (%)” value ([1]; Succinate buffer, MgCl2 20 mmol/L, MgCl2:MBC-11 ~12:1, t = 8 h)?
A: 2.9%

Q: What about the “Content of Ara-CMP (%)” value ([1]; Succinate buffer, MgCl2 20 mmol/L, MgCl2:MBC-11 ~12:1, t = 24 h) of the same compound?
A: 3.6%

Q: What about the “Content of Ara-CMP (%)” value ([1]; Succinate buffer, no MgCl2, t = 0 h) of the same compound?
A: 3.5%

Q: And the “Content of Ara-CMP (%)” value ([1]; Succinate buffer, no MgCl2, t = 4 h)?
A: 5.0%

Q: What about the “Content of Ara-CMP (%)” value ([1]; Succinate buffer, no MgCl2, t = 8 h) of the same compound?
A: 6.4%

Q: And the “Content of Ara-CMP (%)” value ([1]; Succinate buffer, no MgCl2, t = 24 h)?
A: 11.5%

Q: And the “Content of Ara-CMP (%)” value ([1]; Tartrate buffer, MgCl2 0.87 mmol/L, MgCl2:MBC-11 1:2, t = 0 h)?
A: 2.5%

Q: What about the “Content of Ara-CMP (%)” value ([1]; Tartrate buffer, MgCl2 0.87 mmol/L, MgCl2:MBC-11 1:2, t = 4 h) of the same compound?
A: 3.5%

Q: And the “Content of Ara-CMP (%)” value ([1]; Tartrate buffer, MgCl2 0.87 mmol/L, MgCl2:MBC-11 1:2, t = 8 h)?
A: 4.5%

Q: And the “Content of Ara-CMP (%)” value ([1]; Tartrate buffer, MgCl2 0.87 mmol/L, MgCl2:MBC-11 1:2, t = 24 h)?
A: 8.4%

Q: What about the “Content of Ara-CMP (%)” value ([1]; Tartrate buffer, MgCl2 1.73 mmol/L, MgCl2:MBC-11 1:1, t = 0 h) of the same compound?
A: 2.6%

Q: And the “Content of Ara-CMP (%)” value ([1]; Tartrate buffer, MgCl2 1.73 mmol/L, MgCl2:MBC-11 1:1, t = 4 h)?
A: 3.3%

Q: What about the “Content of Ara-CMP (%)” value ([1]; Tartrate buffer, MgCl2 1.73 mmol/L, MgCl2:MBC-11 1:1, t = 8 h) of the same compound?
A: 4.1%

Q: What about the “Content of Ara-CMP (%)” value ([1]; Tartrate buffer, MgCl2 1.73 mmol/L, MgCl2:MBC-11 1:1, t = 24 h) of the same compound?
A: 7.3%

Q: And the “Content of Ara-CMP (%)” value ([1]; Tartrate buffer, MgCl2 3.5 mmol/L, MgCl2:MBC-11 2:1, t = 0 h)?
A: 2.5%

Q: What about the “Content of Ara-CMP (%)” value ([1]; Tartrate buffer, MgCl2 3.5 mmol/L, MgCl2:MBC-11 2:1, t = 4 h) of the same compound?
A: 3.0%

Q: What about the “Content of Ara-CMP (%)” value ([1]; Tartrate buffer, MgCl2 3.5 mmol/L, MgCl2:MBC-11 2:1, t = 8 h) of the same compound?
A: 3.5%

Q: And the “Content of Ara-CMP (%)” value ([1]; Tartrate buffer, MgCl2 3.5 mmol/L, MgCl2:MBC-11 2:1, t = 24 h)?
A: 5.5%

Q: And the “Content of Ara-CMP (%)” value ([1]; Tartrate buffer, MgCl2 20 mmol/L, MgCl2:MBC-11 ~12:1, t = 0 h)?
A: 2.6%

Q: What about the “Content of Ara-CMP (%)” value ([1]; Tartrate buffer, MgCl2 20 mmol/L, MgCl2:MBC-11 ~12:1, t = 4 h) of the same compound?
A: 2.7%

Q: What about the “Content of Ara-CMP (%)” value ([1]; Tartrate buffer, MgCl2 20 mmol/L, MgCl2:MBC-11 ~12:1, t = 8 h) of the same compound?
A: 3.0%

Q: And the “Content of Ara-CMP (%)” value ([1]; Tartrate buffer, MgCl2 20 mmol/L, MgCl2:MBC-11 ~12:1, t = 24 h)?
A: 3.8%

Q: And the “Content of Ara-CMP (%)” value ([1]; Tartrate buffer, no MgCl2, t = 0 h)?
A: 3.8%

Q: What about the “Content of Ara-CMP (%)” value ([1]; Tartrate buffer, no MgCl2, t = 4 h) of the same compound?
A: 5.3%

Q: What about the “Content of Ara-CMP (%)” value ([1]; Tartrate buffer, no MgCl2, t = 8 h) of the same compound?
A: 6.6%

Q: What about the “Content of Ara-CMP (%)” value ([1]; Tartrate buffer, no MgCl2, t = 24 h) of the same compound?
A: 11.7%

Q: What about the “Content of Ara-CMP (%)” value ([1]; Water, MgCl2 0.87 mmol/L, MgCl2:MBC-11 1:2, t = 0 h) of the same compound?
A: 2.6%

Q: What about the “Content of Ara-CMP (%)” value ([1]; Water, MgCl2 0.87 mmol/L, MgCl2:MBC-11 1:2, t = 4 h) of the same compound?
A: 3.3%

Q: And the “Content of Ara-CMP (%)” value ([1]; Water, MgCl2 0.87 mmol/L, MgCl2:MBC-11 1:2, t = 8 h)?
A: 4.0%

Q: What about the “Content of Ara-CMP (%)” value ([1]; Water, MgCl2 0.87 mmol/L, MgCl2:MBC-11 1:2, t = 24 h) of the same compound?
A: 6.8%

Q: And the “Content of Ara-CMP (%)” value ([1]; Water, MgCl2 1.73 mmol/L, MgCl2:MBC-11 1:1, t = 0 h)?
A: 2.5%

Q: What about the “Content of Ara-CMP (%)” value ([1]; Water, MgCl2 1.73 mmol/L, MgCl2:MBC-11 1:1, t = 4 h) of the same compound?
A: 2.8%

Q: And the “Content of Ara-CMP (%)” value ([1]; Water, MgCl2 1.73 mmol/L, MgCl2:MBC-11 1:1, t = 8 h)?
A: 3.2%

Q: What about the “Content of Ara-CMP (%)” value ([1]; Water, MgCl2 1.73 mmol/L, MgCl2:MBC-11 1:1, t = 24 h) of the same compound?
A: 4.6%

Q: And the “Content of Ara-CMP (%)” value ([1]; Water, MgCl2 3.5 mmol/L, MgCl2:MBC-11 2:1, t = 0 h)?
A: 2.7%

Q: What about the “Content of Ara-CMP (%)” value ([1]; Water, MgCl2 3.5 mmol/L, MgCl2:MBC-11 2:1, t = 4 h) of the same compound?
A: 2.7%

Q: What about the “Content of Ara-CMP (%)” value ([1]; Water, MgCl2 3.5 mmol/L, MgCl2:MBC-11 2:1, t = 8 h) of the same compound?
A: 2.9%

Q: What about the “Content of Ara-CMP (%)” value ([1]; Water, MgCl2 3.5 mmol/L, MgCl2:MBC-11 2:1, t = 24 h) of the same compound?
A: 3.7%

Q: What about the “Content of Ara-CMP (%)” value ([1]; Water, MgCl2 20 mmol/L, MgCl2:MBC-11 ~12:1, t = 0 h) of the same compound?
A: 2.6%

Q: And the “Content of Ara-CMP (%)” value ([1]; Water, MgCl2 20 mmol/L, MgCl2:MBC-11 ~12:1, t = 4 h)?
A: 2.7%

Q: And the “Content of Ara-CMP (%)” value ([1]; Water, MgCl2 20 mmol/L, MgCl2:MBC-11 ~12:1, t = 8 h)?
A: 2.9%

Q: What about the “Content of Ara-CMP (%)” value ([1]; Water, MgCl2 20 mmol/L, MgCl2:MBC-11 ~12:1, t = 24 h) of the same compound?
A: 3.5%

Q: What about the “increase in Ara-CMP content” value ([1]; previous observations (before addition of MgCl2), 8 hours at 25° C.) of the same compound?
A: ~2%

Q: What about the “slowdown in the hydrolysis reaction” value ([2]; divalent metal salts added to aqueous solution in molar ratio 2:1) of the same compound?
A: 90%

Q: What about the “hydrolysis rate constant (K)” value ([2]; molar ratio CaCl2 to MBC-11 2:1) of the same compound?
A: 0.0005

Q: What about the “hydrolysis rate constant (K)” value ([2]; molar ratio MgCl2 to MBC-11 2:1) of the same compound?
A: 0.0005

Q: And the “increase in Ara-CMP content” value [3]?
A: 1%

Q: And the “increase in the Ara-CMP content” value [4]?
A: 0.5%
